Measurements: patent US20140155397A1, “EMT SIGNATURES AND PREDICTIVE MARKERS AND METHOD OF USING THE SAME” (Board of Regents, priority 2011, published 2014)

Legend:
Assay in all cases: Protein kinase panel
Type in all cases: biochemical
[1] = target: Flt1 (Homo sapiens, UniProt P17948)
Text: (§1) Purified recombinant AXL kinase was used to screen a library of structures with appropriate drug-like scaffolds to identify potential inhibitors. Hits from the screen were confirmed and r analyzed by selection criteria including Lipinski rules. One pyrrolopyrimidine-based compound was selected for structure-activity relationship efforts. Optimization of this scaffold and subsequent evaluation led to the generation of compound SG1-7079 as the lead candidate inhibitor (FIG. 10). […] SGI-7079 was screened against a panel of protein kinases to determine both selectivity and biochemical potency.

[2] = target: PDGFRβ (Homo sapiens, UniProt P09619)
Sequence of PDGFRβ (P09619 33-1106, species assumed): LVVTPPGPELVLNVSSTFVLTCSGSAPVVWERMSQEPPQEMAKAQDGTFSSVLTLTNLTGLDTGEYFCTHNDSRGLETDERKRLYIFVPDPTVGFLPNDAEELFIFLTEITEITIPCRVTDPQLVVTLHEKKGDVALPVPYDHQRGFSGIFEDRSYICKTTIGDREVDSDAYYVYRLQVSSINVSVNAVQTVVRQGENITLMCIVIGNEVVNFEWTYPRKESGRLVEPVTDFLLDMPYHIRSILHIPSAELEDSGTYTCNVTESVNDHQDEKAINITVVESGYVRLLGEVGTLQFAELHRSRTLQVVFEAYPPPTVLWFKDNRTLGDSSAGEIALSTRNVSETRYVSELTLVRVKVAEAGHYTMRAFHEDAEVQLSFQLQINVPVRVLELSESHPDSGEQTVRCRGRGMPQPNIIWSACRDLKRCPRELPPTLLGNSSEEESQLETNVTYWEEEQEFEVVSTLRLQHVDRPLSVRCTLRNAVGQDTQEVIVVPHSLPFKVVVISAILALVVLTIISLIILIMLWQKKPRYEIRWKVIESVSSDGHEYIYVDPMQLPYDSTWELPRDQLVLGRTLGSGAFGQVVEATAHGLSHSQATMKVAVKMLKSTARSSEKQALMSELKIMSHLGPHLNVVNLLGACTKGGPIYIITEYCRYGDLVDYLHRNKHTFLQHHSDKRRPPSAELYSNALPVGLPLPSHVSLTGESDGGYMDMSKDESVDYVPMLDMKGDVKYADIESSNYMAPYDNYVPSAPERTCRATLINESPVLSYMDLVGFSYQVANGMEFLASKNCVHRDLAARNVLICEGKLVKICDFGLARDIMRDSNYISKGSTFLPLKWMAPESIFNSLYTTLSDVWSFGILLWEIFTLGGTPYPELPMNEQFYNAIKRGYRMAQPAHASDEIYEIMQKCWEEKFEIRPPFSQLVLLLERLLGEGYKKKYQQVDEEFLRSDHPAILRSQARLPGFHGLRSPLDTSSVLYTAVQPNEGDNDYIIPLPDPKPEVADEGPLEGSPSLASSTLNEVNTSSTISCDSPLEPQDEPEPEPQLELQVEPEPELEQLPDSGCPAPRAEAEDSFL
Text: as §1

[3] = target: T1, Tyro3 (Homo sapiens, UniProt Q06418)
T1 sequence (Q06418 41-890): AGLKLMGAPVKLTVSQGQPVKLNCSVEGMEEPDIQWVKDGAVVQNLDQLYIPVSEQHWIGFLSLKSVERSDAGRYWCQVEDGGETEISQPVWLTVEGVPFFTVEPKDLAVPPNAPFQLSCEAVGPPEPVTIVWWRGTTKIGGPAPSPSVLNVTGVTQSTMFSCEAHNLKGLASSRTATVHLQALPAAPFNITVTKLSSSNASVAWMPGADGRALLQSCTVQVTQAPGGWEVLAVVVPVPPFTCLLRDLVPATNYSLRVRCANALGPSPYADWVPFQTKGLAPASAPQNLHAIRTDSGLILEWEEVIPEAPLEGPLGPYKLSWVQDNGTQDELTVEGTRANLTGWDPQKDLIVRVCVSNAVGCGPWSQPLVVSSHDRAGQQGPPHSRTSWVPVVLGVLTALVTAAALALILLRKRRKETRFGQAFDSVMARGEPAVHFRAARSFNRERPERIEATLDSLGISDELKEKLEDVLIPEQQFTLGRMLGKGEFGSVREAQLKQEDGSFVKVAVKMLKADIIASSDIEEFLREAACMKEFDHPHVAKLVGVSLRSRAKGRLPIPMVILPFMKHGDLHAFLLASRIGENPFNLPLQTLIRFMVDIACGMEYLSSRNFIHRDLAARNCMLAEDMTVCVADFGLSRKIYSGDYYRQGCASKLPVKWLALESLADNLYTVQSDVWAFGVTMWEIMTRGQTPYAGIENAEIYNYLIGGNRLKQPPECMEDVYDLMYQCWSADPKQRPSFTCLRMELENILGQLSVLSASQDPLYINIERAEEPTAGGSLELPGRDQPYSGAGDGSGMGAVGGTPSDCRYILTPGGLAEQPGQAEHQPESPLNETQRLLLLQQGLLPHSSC
Text: as §1

[4] = target: Jak2 (Homo sapiens, UniProt O60674)
Sequence of Jak2 (O60674 whole entry, species assumed): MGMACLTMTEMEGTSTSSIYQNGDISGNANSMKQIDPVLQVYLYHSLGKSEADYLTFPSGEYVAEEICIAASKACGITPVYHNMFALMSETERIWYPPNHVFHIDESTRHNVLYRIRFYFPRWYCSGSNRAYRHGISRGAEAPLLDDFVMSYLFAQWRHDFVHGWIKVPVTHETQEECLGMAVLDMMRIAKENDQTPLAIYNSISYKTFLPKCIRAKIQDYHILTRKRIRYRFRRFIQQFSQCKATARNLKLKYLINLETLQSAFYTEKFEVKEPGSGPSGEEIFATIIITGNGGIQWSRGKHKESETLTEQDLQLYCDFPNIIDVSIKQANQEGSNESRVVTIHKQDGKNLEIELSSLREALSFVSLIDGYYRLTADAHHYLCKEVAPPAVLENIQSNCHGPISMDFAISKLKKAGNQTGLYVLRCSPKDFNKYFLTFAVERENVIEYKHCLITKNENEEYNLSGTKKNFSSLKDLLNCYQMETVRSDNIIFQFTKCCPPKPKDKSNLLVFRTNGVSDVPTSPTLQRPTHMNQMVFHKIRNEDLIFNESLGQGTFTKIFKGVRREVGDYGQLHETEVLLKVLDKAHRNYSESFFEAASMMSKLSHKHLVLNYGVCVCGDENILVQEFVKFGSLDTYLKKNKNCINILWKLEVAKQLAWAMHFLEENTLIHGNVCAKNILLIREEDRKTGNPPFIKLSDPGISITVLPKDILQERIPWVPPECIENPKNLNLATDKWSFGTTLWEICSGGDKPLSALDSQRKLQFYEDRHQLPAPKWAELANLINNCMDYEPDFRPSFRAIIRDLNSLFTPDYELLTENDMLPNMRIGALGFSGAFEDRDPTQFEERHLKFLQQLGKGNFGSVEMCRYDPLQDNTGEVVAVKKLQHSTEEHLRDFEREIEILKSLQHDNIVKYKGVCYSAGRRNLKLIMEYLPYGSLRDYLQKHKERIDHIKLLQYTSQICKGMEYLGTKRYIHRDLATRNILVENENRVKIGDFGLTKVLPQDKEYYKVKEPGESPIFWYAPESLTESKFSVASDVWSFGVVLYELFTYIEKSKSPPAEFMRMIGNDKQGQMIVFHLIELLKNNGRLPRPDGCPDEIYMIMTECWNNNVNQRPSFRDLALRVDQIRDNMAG
Text: as §1

[5] = target: Syk (Homo sapiens, UniProt P43405)
Text: as §1

[6] = target: T2, Flt3 (Homo sapiens, UniProt P36888)
T2 sequence (P36888 27-993): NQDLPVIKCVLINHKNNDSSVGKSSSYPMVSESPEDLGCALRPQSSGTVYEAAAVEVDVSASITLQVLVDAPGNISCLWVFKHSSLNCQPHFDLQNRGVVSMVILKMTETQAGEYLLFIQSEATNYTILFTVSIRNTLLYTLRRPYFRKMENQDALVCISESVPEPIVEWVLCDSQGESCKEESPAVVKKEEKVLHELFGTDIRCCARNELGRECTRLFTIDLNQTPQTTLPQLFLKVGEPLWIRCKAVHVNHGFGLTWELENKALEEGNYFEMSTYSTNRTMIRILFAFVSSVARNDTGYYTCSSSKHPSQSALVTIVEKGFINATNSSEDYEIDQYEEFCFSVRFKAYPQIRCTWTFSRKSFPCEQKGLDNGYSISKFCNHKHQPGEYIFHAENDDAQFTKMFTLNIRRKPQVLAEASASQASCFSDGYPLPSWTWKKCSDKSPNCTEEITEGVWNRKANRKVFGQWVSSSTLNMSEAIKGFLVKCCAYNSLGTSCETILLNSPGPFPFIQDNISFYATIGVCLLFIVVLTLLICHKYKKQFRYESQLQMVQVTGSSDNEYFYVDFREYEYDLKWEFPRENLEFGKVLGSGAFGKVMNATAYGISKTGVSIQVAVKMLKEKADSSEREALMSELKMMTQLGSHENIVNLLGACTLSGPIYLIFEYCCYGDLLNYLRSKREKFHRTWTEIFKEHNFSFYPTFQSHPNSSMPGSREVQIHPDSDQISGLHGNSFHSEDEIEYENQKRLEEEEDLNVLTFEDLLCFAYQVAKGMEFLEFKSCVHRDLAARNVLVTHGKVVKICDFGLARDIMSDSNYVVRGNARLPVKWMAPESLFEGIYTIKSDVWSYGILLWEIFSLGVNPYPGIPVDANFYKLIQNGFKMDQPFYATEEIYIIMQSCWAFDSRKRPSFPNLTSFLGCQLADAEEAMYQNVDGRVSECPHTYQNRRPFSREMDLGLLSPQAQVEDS
Text: as §1

[7] = target: Ret (Homo sapiens, UniProt P07949)
Text: as §1

[8] = target: TrkB (Homo sapiens, UniProt Q16620)
Sequence of TrkB (Q16620 32-822, species assumed): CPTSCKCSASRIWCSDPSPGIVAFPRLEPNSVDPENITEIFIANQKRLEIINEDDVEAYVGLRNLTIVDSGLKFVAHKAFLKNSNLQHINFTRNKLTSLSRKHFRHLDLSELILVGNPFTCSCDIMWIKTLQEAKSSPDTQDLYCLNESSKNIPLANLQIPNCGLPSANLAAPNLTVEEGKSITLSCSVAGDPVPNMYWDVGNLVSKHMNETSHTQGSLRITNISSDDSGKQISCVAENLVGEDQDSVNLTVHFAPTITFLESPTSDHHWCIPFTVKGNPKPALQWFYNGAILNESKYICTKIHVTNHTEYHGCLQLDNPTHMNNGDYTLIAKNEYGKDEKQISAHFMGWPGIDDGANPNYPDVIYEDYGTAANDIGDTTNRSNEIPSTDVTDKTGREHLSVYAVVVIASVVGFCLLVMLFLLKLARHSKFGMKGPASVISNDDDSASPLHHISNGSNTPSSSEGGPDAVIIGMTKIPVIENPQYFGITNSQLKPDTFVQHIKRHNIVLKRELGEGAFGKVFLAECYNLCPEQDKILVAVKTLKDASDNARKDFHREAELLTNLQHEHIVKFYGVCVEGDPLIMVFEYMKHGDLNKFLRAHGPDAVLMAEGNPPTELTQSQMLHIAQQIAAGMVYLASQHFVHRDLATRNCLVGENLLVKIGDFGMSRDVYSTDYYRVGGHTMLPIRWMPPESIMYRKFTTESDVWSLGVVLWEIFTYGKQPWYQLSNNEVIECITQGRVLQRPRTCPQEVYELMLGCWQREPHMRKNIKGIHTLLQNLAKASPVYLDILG
Text: as §1

[9] = target: TrkA (Homo sapiens, UniProt P04629)
Sequence of TrkA (P04629 33-796, species assumed): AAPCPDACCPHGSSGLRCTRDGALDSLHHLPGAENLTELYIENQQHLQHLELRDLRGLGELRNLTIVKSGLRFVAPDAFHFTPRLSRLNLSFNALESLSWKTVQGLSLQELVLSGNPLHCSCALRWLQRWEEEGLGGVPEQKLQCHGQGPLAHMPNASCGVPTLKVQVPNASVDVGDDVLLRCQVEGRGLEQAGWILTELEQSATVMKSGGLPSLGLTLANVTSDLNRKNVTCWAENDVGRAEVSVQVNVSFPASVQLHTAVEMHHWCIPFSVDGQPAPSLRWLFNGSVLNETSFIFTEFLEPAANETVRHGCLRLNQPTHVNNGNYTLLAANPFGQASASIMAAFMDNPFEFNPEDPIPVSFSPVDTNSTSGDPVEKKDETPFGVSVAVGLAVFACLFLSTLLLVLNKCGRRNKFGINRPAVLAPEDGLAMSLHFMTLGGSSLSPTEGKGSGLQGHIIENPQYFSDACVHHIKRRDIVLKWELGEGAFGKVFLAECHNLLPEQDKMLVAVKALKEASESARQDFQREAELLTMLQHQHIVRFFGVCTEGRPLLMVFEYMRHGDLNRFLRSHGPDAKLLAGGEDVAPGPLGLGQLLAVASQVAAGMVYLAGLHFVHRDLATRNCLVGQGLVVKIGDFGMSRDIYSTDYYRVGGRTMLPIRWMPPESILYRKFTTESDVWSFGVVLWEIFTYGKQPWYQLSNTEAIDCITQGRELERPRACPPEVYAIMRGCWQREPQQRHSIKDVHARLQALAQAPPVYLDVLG
Text: as §1

Sequence of Flt1 (P17948 27-1338, species assumed): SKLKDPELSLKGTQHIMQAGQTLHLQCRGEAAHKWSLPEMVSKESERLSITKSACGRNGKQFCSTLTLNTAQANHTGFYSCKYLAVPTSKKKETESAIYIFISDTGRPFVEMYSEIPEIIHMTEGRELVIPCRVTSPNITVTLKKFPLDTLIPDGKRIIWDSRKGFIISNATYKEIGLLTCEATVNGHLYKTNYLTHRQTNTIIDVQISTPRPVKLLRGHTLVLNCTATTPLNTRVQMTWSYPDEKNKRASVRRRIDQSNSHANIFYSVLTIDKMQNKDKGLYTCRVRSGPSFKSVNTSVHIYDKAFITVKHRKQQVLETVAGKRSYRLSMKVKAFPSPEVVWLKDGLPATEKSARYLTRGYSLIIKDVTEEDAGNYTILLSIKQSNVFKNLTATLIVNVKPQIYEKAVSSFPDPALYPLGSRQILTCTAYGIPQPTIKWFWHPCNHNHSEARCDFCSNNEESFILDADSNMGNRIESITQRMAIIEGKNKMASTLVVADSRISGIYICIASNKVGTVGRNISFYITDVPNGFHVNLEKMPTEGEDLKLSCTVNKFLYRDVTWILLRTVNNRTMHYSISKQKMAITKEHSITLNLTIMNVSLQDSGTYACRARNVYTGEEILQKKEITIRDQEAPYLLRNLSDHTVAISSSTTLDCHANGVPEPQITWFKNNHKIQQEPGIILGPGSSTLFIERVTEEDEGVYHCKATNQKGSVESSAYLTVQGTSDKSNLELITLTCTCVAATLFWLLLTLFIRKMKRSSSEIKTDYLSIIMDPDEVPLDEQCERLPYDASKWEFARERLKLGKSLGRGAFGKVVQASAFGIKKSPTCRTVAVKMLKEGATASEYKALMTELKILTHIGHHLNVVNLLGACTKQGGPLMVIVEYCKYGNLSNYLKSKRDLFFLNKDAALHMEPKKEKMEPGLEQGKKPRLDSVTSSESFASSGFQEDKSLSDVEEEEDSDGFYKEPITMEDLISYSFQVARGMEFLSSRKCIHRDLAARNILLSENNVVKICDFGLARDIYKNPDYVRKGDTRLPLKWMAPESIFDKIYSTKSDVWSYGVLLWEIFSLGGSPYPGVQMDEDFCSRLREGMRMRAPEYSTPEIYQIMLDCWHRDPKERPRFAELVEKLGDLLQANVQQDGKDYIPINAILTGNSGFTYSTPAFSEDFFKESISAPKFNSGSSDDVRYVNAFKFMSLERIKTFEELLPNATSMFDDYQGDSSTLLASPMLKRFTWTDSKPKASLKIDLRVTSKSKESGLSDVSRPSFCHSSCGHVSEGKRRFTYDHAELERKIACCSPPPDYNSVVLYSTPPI

Inhibition of Flt1 [1]: potent, low nM inhibition | Inhibition of PDGFRβ [2]: potent, low nM inhibition | Inhibition of Tyro3 [3]: similarly as AXL | Inhibition of Jak2 [4]: potent, low nM inhibition | Inhibition of Syk [5]: potent, low nM inhibition | Inhibition of Flt3 [6]: potent, low nM inhibition | Inhibition of Ret [7]: potent, low nM inhibition | Inhibition of TrkB [8]: potent, low nM inhibition | Inhibition of TrkA [9]: potent, low nM inhibition
Structure (SMILES): Cc1c[nH]c2nc(Nc3ccc(N4CCN(C)CC4)c(F)c3)nc(-c3cccc(CC#N)c3)c12 [SGI-7079]
